# System: 695427-040-R-J1-PDC complex spheroids, viability percent T/C
# Test: Anticancer human tumor 695427-040-R-J1-PDC patient-derived colon adenocarcinoma cell line growth inhibition [GQUAD]
# Conditions: for IC50: curve of first compound; for viability, T/C: stronger effect = lower value
# Procedure, shortened: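 Tumor cells were grown as complex spheroids with HUVEC endothelial cells and mesenchymal stem cells as stroma. G-quadruplex stabilizers were combined with targeted agents over half-log dilutions from near the clinical Cmax, or from 10 microM.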
# [1] = second compound 0.0316 µM, first compound 0.0316 µM
# [2] = second compound 0.0316 µM, first compound 0.1 µM
# [3] = second compound 0.0316 µM, first compound 0.316 µM
# [4] = second compound 0.0316 µM, first compound 1 µM
# [5] = second compound 0.0316 µM, first compound 3.16 µM
# [6] = second compound 0.0316 µM, first compound 10 µM
# [7] = second compound 0.1 µM, first compound 0.0316 µM
# [8] = second compound 0.1 µM, first compound 0.1 µM
# [9] = second compound 0.1 µM, first compound 0.316 µM
# [10] = second compound 0.1 µM, first compound 1 µM
# [11] = second compound 0.1 µM, first compound 3.16 µM
# [12] = second compound 0.1 µM, first compound 10 µM
# [13] = second compound 0.316 µM, first compound 0.0316 µM
# [14] = second compound 0.316 µM, first compound 0.1 µM
# [15] = second compound 0.316 µM, first compound 0.316 µM
# [16] = second compound 0.316 µM, first compound 1 µM
# [17] = second compound 0.316 µM, first compound 3.16 µM
# [18] = second compound 0.316 µM, first compound 10 µM
# [19] = second compound 1 µM, first compound 0.0316 µM
# [20] = second compound 1 µM, first compound 0.1 µM
# [21] = second compound 1 µM, first compound 0.316 µM
# [22] = second compound 1 µM, first compound 1 µM
# [23] = second compound 1 µM, first compound 3.16 µM
# [24] = second compound 1 µM, first compound 10 µM
# [25] = second compound 3.16 µM, first compound 0.0316 µM
# [26] = second compound 3.16 µM, first compound 0.1 µM
# [27] = second compound 3.16 µM, first compound 0.316 µM
# [28] = second compound 3.16 µM, first compound 1 µM
# [29] = second compound 3.16 µM, first compound 3.16 µM
# [30] = second compound 3.16 µM, first compound 10 µM
# [31] = second compound 10 µM, first compound 0.0316 µM
# [32] = second compound 10 µM, first compound 0.1 µM
# [33] = second compound 10 µM, first compound 0.316 µM
# [34] = second compound 10 µM, first compound 1 µM
# [35] = second compound 10 µM, first compound 3.16 µM
# [36] = second compound 10 µM, first compound 10 µM
# 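Further: spheroids exposed to compounds for seven days before readout.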
structure (smiles),measurement,setting,value
CC1COCCN1c1cc(-c2ccnn2C)c2ccnc(-c3ccn[nH]3)c2n1 (stereo not drawn) + Cc1cnc(CNC(=O)c2c(=O)c3ccc(N4CCCN(C)CC4)nc3n3c2sc2ccccc23)cn1,IC50,second compound 0.0316 µM,120 nM
same,IC50,second compound 0.1 µM,68.4 nM
same,IC50,second compound 0.316 µM,79.2 nM
same,IC50,second compound 1 µM,51.9 nM
same,IC50,second compound 3.16 µM,< 31.6 nM
same,IC50,second compound 10 µM,< 31.6 nM
same,"viability, T/C",[1],62.7%
same,"viability, T/C",[2],52%
same,"viability, T/C",[3],38.8%
same,"viability, T/C",[4],29.9%
same,"viability, T/C",[5],28.1%
same,"viability, T/C",[6],26.6%
same,"viability, T/C",[7],59.9%
same,"viability, T/C",[8],44.5%
same,"viability, T/C",[9],36.2%
same,"viability, T/C",[10],25.6%
same,"viability, T/C",[11],29.4%
same,"viability, T/C",[12],29.2%
same,"viability, T/C",[13],69.3%
same,"viability, T/C",[14],43.2%
same,"viability, T/C",[15],37.3%
same,"viability, T/C",[16],28%
same,"viability, T/C",[17],30%
same,"viability, T/C",[18],24.9%
same,"viability, T/C",[19],58.8%
same,"viability, T/C",[20],35.6%
same,"viability, T/C",[21],34.1%
same,"viability, T/C",[22],22.7%
same,"viability, T/C",[23],27.7%
same,"viability, T/C",[24],14.8%
same,"viability, T/C",[25],21.8%
same,"viability, T/C",[26],31.4%
same,"viability, T/C",[27],28.9%
same,"viability, T/C",[28],20.6%
same,"viability, T/C",[29],20.5%
same,"viability, T/C",[30],11.5%
same,"viability, T/C",[31],24.9%
same,"viability, T/C",[32],19.6%
same,"viability, T/C",[33],24.8%
same,"viability, T/C",[34],16.6%
same,"viability, T/C",[35],13.6%
same,"viability, T/C",[36],1.36%
CC1COCCN1c1cc(C2(O)CC3CCC(C2)O3)c2cnn(-c3ccn[nH]3)c2n1 (stereo not drawn) + Cc1cnc(CNC(=O)c2c(=O)c3ccc(N4CCCN(C)CC4)nc3n3c2sc2ccccc23)cn1,IC50,second compound 0.0316 µM,277 nM
same,IC50,second compound 0.1 µM,220 nM
same,IC50,second compound 0.316 µM,91.1 nM
same,IC50,second compound 1 µM,< 31.6 nM
same,IC50,second compound 3.16 µM,< 31.6 nM
same,IC50,second compound 10 µM,< 31.6 nM
same,"viability, T/C",[1],75.1%
same,"viability, T/C",[2],63%
same,"viability, T/C",[3],49.8%
same,"viability, T/C",[4],31.1%
same,"viability, T/C",[5],26%
same,"viability, T/C",[6],18.1%
same,"viability, T/C",[7],79%
same,"viability, T/C",[8],57%
same,"viability, T/C",[9],47%
same,"viability, T/C",[10],34.1%
same,"viability, T/C",[11],30.3%
same,"viability, T/C",[12],20.9%
same,"viability, T/C",[13],81.7%
same,"viability, T/C",[14],41.3%
same,"viability, T/C",[15],40.2%
same,"viability, T/C",[16],26.8%
same,"viability, T/C",[17],26.4%
same,"viability, T/C",[18],18.4%
same,"viability, T/C",[19],38.5%
same,"viability, T/C",[20],41.1%
same,"viability, T/C",[21],31.5%
same,"viability, T/C",[22],29.7%
same,"viability, T/C",[23],28.2%
same,"viability, T/C",[24],14.3%
same,"viability, T/C",[25],30.2%
same,"viability, T/C",[26],35%
same,"viability, T/C",[27],28.5%
same,"viability, T/C",[28],16.9%
same,"viability, T/C",[29],19.5%
same,"viability, T/C",[30],4.04%
same,"viability, T/C",[31],22.1%
same,"viability, T/C",[32],22.2%
same,"viability, T/C",[33],19.3%
same,"viability, T/C",[34],15.2%
same,"viability, T/C",[35],8.74%
same,"viability, T/C",[36],0.42%
CC1COCCN1c1cc(C2(S(C)(=N)=O)CC2)nc(-c2ccnc3[nH]ccc23)n1 (stereo not drawn) + Cc1cnc(CNC(=O)c2c(=O)c3ccc(N4CCCN(C)CC4)nc3n3c2sc2ccccc23)cn1,IC50,second compound 0.0316 µM,> 10000 nM
same,IC50,second compound 0.1 µM,> 10000 nM
same,IC50,second compound 0.316 µM,> 10000 nM
same,IC50,second compound 1 µM,> 10000 nM
same,IC50,second compound 3.16 µM,< 31.6 nM
same,IC50,second compound 10 µM,< 31.6 nM
same,"viability, T/C",[1],95.6%
same,"viability, T/C",[2],93.5%
same,"viability, T/C",[3],95.3%
same,"viability, T/C",[4],94.2%
same,"viability, T/C",[5],74.8%
same,"viability, T/C",[6],66.2%
same,"viability, T/C",[7],85.2%
same,"viability, T/C",[8],79.1%
same,"viability, T/C",[9],89.3%
same,"viability, T/C",[10],64.4%
same,"viability, T/C",[11],74.2%
same,"viability, T/C",[12],55.4%
same,"viability, T/C",[13],76.8%
same,"viability, T/C",[14],71.5%
same,"viability, T/C",[15],77.5%
same,"viability, T/C",[16],66.1%
same,"viability, T/C",[17],77.9%
same,"viability, T/C",[18],50.4%
same,"viability, T/C",[19],51.8%
same,"viability, T/C",[20],66.6%
same,"viability, T/C",[21],59.7%
same,"viability, T/C",[22],66.7%
same,"viability, T/C",[23],62.7%
same,"viability, T/C",[24],47.3%
same,"viability, T/C",[25],33.4%
same,"viability, T/C",[26],58.1%
same,"viability, T/C",[27],53.2%
same,"viability, T/C",[28],49.4%
same,"viability, T/C",[29],51.5%
same,"viability, T/C",[30],36.9%
same,"viability, T/C",[31],33.8%
same,"viability, T/C",[32],36.5%
same,"viability, T/C",[33],41.7%
same,"viability, T/C",[34],39.1%
same,"viability, T/C",[35],44%
same,"viability, T/C",[36],25.5%
COc1ccc([C@@H](O)c2cc(-c3ncnc4cc(N5CCOCC5)ccc34)c(F)cc2Cl)nn1 + Cc1cnc(CNC(=O)c2c(=O)c3ccc(N4CCCN(C)CC4)nc3n3c2sc2ccccc23)cn1,IC50,second compound 0.0316 µM,2950 nM
same,IC50,second compound 0.1 µM,3680 nM
same,IC50,second compound 0.316 µM,2080 nM
same,IC50,second compound 1 µM,2330 nM
same,IC50,second compound 3.16 µM,< 31.6 nM
same,IC50,second compound 10 µM,< 31.6 nM
same,"viability, T/C",[1],93.2%
same,"viability, T/C",[2],101%
same,"viability, T/C",[3],85.6%
same,"viability, T/C",[4],64.3%
same,"viability, T/C",[5],53.1%
same,"viability, T/C",[6],31.2%
same,"viability, T/C",[7],91.5%
same,"viability, T/C",[8],103%
same,"viability, T/C",[9],80.5%
same,"viability, T/C",[10],66.5%
same,"viability, T/C",[11],55.7%
same,"viability, T/C",[12],36.3%
same,"viability, T/C",[13],72.6%
same,"viability, T/C",[14],79.3%
same,"viability, T/C",[15],69.8%
same,"viability, T/C",[16],56.1%
same,"viability, T/C",[17],47.5%
same,"viability, T/C",[18],35.2%
same,"viability, T/C",[19],58%
same,"viability, T/C",[20],69.4%
same,"viability, T/C",[21],60.9%
same,"viability, T/C",[22],52.2%
same,"viability, T/C",[23],49.6%
same,"viability, T/C",[24],32%
same,"viability, T/C",[25],41.5%
same,"viability, T/C",[26],46.3%
same,"viability, T/C",[27],42.7%
same,"viability, T/C",[28],46%
same,"viability, T/C",[29],39.5%
same,"viability, T/C",[30],21.9%
same,"viability, T/C",[31],36.8%
same,"viability, T/C",[32],39.6%
same,"viability, T/C",[33],36.3%
same,"viability, T/C",[34],33.6%
same,"viability, T/C",[35],20.2%
same,"viability, T/C",[36],5.79%
